Data taken from ChEMBL document CHEMBL3808387, “Discovery of IWP-051, a Novel Orally Bioavailable sGC Stimulator with Once-Daily Dosing Potential in Humans” (ACS Med Chem Lett, 2016).
Converted amounts (≈) assume the structure as drawn.

Tested on: not listed separately
Assay: Oral bioavailability in Beagle dog at 1 mg/kg by LC-MS/MS analysis
Format: ADME, organism-based, Canis lupus familiaris
Conditions: in vivo

| bioavailability [%] | SMILES |
| --- | --- |
| 45 | Oc1nc(-c2cc(-c3ccon3)n(Cc3ccccc3F)n2)ncc1F |

Tested on: not listed separately
Assay: Volume of distribution at steady state in CD-1 mouse at 0.1 mg/kg, iv or 1 mg/kg, po by LC-MS/MS analysis
Format: ADME, organism-based
Conditions: in vivo, read-out: Vdss

| Vd [L/kg] | SMILES |
| --- | --- |
| 1.3 | Oc1nc(-c2cc(-c3ccon3)n(Cc3ccccc3F)n2)ncc1F |

Tested on: not listed separately
Assay: Intrinsic clearance in Sprague-Dawley rat liver microsomes assessed per mg of protein at 2 uM after 10 to 30 mins by LC/MS/MS analysis in presence of NADPH
Format: ADME
Conditions: read-out: CLH

| SMILES | microsomal CLint at 2 µM [µL/min/mg] |
| --- | --- |
| Oc1nc(-c2cc(-c3ccon3)n(Cc3sccc3F)n2)ncc1F | 13 |
| Cc1cc(-c2cc(-c3ncc(F)c(O)n3)nn2Cc2ccccc2F)no1 | 249 |
| Oc1nc(-c2cc(-c3ccccn3)n(Cc3ccccc3F)n2)ncc1F | 39 |
| O=c1[nH]c(-c2cc(-c3ccsn3)n(Cc3ccccc3F)n2)ncc1F | 129 |

Results, then the compound that gave them:

| microsomal CLint at 2 µM [µL/min/mg] | SMILES |
| --- | --- |
| 27 | O=S(=O)(c1ccccc1)c1cnc(-c2cc(-c3ccon3)n(Cc3ccccc3F)n2)nc1O |
| 20 | Oc1nc(-c2cc(-c3ccon3)n(Cc3ccccc3F)n2)ncc1C(F)(F)F |
| 16 | Cc1nc(-c2cc(-c3ccon3)n(Cc3ccccc3F)n2)nc(O)c1F |

Tested on: not listed separately
Assay: Thermodynamic solubility of the compound at pH 7.4
Format: physicochemical
Conditions: buffer, read-out: Therm_solubility

| solubility thermodynamic [µg/mL] | SMILES |
| --- | --- |
| 3 (≈ 8.44 µM) | Oc1nc(-c2cc(-c3ccon3)n(Cc3ccccc3F)n2)ncc1F |

Tested on: not listed separately
Assay: Oral bioavailability in Sprague-Dawley rat at 1 mg/kg by LC-MS/MS analysis
Format: ADME, organism-based
Conditions: in vivo

| bioavailability [%] | SMILES |
| --- | --- |
| 96 | Oc1nc(-c2cc(-c3ccon3)n(Cc3ccccc3F)n2)ncc1F |

Target: cGMP-specific 3',5'-cyclic phosphodiesterase (Homo sapiens) (UniProt O76074)
Assay: Inhibition of PDE5 (unknown origin) at 10 uM
Conditions: not given

| inhibition [%] | SMILES |
| --- | --- |
| < 30 | Oc1nc(-c2cc(-c3ccon3)n(Cc3ccccc3F)n2)ncc1F |

Target: 3',5'-cyclic-AMP phosphodiesterase 4D (Homo sapiens) (UniProt Q08499)
Assay: Inhibition of PDE4D2 (unknown origin) at 10 uM
Conditions: not given

Chain of 3',5'-cyclic-AMP phosphodiesterase 4D (Homo sapiens) (Q08499 whole entry): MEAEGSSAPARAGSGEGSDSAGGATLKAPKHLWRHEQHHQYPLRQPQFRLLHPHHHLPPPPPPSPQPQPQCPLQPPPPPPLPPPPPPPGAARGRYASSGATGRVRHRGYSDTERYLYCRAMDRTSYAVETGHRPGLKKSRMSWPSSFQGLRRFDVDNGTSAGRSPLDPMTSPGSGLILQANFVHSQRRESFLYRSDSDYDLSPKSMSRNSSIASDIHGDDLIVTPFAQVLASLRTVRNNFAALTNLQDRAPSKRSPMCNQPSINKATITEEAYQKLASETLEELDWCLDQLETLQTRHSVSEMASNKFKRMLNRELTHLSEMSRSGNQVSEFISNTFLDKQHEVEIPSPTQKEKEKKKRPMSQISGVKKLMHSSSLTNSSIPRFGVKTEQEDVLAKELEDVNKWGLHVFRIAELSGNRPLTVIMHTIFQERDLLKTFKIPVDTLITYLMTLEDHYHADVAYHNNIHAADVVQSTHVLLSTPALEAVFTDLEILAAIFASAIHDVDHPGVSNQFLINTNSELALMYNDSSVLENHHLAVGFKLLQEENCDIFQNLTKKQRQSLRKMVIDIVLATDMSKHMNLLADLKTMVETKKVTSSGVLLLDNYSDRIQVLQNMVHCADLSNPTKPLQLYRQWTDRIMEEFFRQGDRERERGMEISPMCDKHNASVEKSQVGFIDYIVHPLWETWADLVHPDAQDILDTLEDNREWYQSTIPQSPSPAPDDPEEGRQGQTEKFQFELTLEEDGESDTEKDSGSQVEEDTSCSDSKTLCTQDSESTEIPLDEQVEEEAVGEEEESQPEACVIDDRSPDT

| inhibition [%] | SMILES |
| --- | --- |
| < 30 | Oc1nc(-c2cc(-c3ccon3)n(Cc3ccccc3F)n2)ncc1F |

Tested on: not listed separately
Assay: Tmax in CD-1 mouse at 0.1 mg/kg, iv or 1 mg/kg, po by LC-MS/MS analysis
Format: ADME, organism-based
Conditions: in vivo

| Tmax [h] | SMILES |
| --- | --- |
| 1.7 | Oc1nc(-c2cc(-c3ccon3)n(Cc3ccccc3F)n2)ncc1F |

Tested on: not listed separately
Assay: Oral bioavailability in CD-1 mouse at 1 mg/kg by LC-MS/MS analysis
Format: ADME, organism-based
Conditions: in vivo

| bioavailability [%] | SMILES |
| --- | --- |
| > 100 | Oc1nc(-c2cc(-c3ccon3)n(Cc3ccccc3F)n2)ncc1F |

Tested on: not listed separately
Assay: AUC(0 to infinity) in Sprague-Dawley rat at 0.1 mg/kg, iv or 1 mg/kg, po by LC-MS/MS analysis
Format: ADME, organism-based
Conditions: in vivo

| AUC(0-inf) [ng·h/mL] | SMILES |
| --- | --- |
| 25000 | Oc1nc(-c2cc(-c3ccon3)n(Cc3ccccc3F)n2)ncc1F |

Tested on: not listed separately
Assay: Tmax in Sprague-Dawley rat at 0.1 mg/kg, iv or 1 mg/kg, po by LC-MS/MS analysis
Format: ADME, organism-based
Conditions: in vivo

| Tmax [h] | SMILES |
| --- | --- |
| 5.3 | Oc1nc(-c2cc(-c3ccon3)n(Cc3ccccc3F)n2)ncc1F |

Target: cAMP and cAMP-inhibited cGMP 3',5'-cyclic phosphodiesterase 10A (Homo sapiens) (UniProt Q9Y233)
Assay: Inhibition of PDE10A (unknown origin) at 10 uM
Conditions: not given

| inhibition [%] | SMILES |
| --- | --- |
| < 30 | Oc1nc(-c2cc(-c3ccon3)n(Cc3ccccc3F)n2)ncc1F |

Tested on: Rattus norvegicus
Assay: Reduction in mean arterial pressure in normotensive Sprague-Dawley rat at 30 mg/kg, po measured after 12 to 24 hrs
Format: functional, Artery
Conditions: not given

| SMILES | Activity [mmHg] |
| --- | --- |
| Oc1nc(-c2cc(-c3ccon3)n(Cc3ccccc3F)n2)ncc1F | -30 |

Tested on: not listed separately
Assay: Volume of distribution at steady state in Sprague-Dawley rat at 0.1 mg/kg, iv or 1 mg/kg, po by LC-MS/MS analysis
Format: ADME, organism-based
Conditions: in vivo, read-out: Vdss

| Vd [L/kg] | SMILES |
| --- | --- |
| 0.18 | Oc1nc(-c2cc(-c3ccon3)n(Cc3ccccc3F)n2)ncc1F |

Tested on: not listed separately
Assay: Apparent permeability of compound from apical to basolateral side
Format: physicochemical
Conditions: not told

| Papp A→B [×10⁻⁶ cm/s] | SMILES |
| --- | --- |
| 21.8 | Oc1nc(-c2cc(-c3ccon3)n(Cc3ccccc3F)n2)ncc1F |

Target: Dual specificity calcium/calmodulin-dependent 3',5'-cyclic nucleotide phosphodiesterase 1B (Homo sapiens) (UniProt Q01064)
Assay: Inhibition of PDE1B (unknown origin) at 10 uM
Conditions: not given

Chain of Dual specificity calcium/calmodulin-dependent 3',5'-cyclic nucleotide phosphodiesterase 1B (Homo sapiens) (Q01064 whole entry): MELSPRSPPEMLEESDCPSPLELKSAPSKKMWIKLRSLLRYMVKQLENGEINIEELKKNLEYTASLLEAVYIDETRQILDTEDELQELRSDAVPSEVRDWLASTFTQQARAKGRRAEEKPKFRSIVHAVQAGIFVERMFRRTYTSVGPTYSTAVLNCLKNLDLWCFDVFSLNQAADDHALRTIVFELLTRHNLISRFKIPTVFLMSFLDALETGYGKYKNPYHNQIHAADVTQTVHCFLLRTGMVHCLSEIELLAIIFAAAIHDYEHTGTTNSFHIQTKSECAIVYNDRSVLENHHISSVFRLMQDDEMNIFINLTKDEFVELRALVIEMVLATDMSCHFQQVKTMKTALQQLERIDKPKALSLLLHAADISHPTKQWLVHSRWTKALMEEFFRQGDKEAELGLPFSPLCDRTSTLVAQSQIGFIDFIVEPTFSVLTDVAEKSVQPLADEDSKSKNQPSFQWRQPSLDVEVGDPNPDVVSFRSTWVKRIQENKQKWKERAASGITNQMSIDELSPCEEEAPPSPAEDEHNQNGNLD

| inhibition [%] | SMILES |
| --- | --- |
| < 30 | Oc1nc(-c2cc(-c3ccon3)n(Cc3ccccc3F)n2)ncc1F |

Target: Soluble guanylate cyclase (Homo sapiens) (UniProt Q02153+O75343+P33402+Q02108)
Assay: Activation of SGC in HEK293 cells assessed as cGMP production at 30 uM after 20 mins by LC-MS/MS analysis in presence of NO-donor DETA-NONOate
Format: cell-based
Conditions: not given

| SMILES | Emax [%] |
| --- | --- |
| Cc1cc(-c2cc(-c3ncc(F)c(O)n3)nn2Cc2ccccc2F)no1 | 23 |
| Oc1nc(-c2cc(-c3ccccn3)n(Cc3ccccc3F)n2)ncc1F | 35 |

Continued, values first:

| Emax [%] | SMILES |
| --- | --- |
| 54 | Oc1nc(-c2cc(-c3ccon3)n(Cc3ccccc3F)n2)ncc1C(F)(F)F |
| 70 | Cc1nc(-c2cc(-c3ccon3)n(Cc3ccccc3F)n2)nc(O)c1F |

Tested on: not listed separately
Assay: Cmax in Sprague-Dawley rat at 1 mg/kg, po by LC-MS/MS analysis
Format: ADME, organism-based
Design: dose 1 mg/kg, route oral
Conditions: in vivo

| Cmax [ng/mL] | SMILES |
| --- | --- |
| 1500 | Oc1nc(-c2cc(-c3ccon3)n(Cc3ccccc3F)n2)ncc1F |

Tested on: not listed separately
Assay: Tmax in Beagle dog at 0.1 mg/kg, iv or 1 mg/kg, po by LC-MS/MS analysis
Format: ADME, organism-based, Canis lupus familiaris
Conditions: in vivo

| Tmax [h] | SMILES |
| --- | --- |
| 3.3 | Oc1nc(-c2cc(-c3ccon3)n(Cc3ccccc3F)n2)ncc1F |

Tested on: not listed separately
Assay: AUC(0 to infinity) in Beagle dog at 0.1 mg/kg, iv or 1 mg/kg, po by LC-MS/MS analysis
Format: ADME, organism-based, Canis lupus familiaris
Conditions: in vivo

| AUC(0-inf) [ng·h/mL] | SMILES |
| --- | --- |
| 41700 | Oc1nc(-c2cc(-c3ccon3)n(Cc3ccccc3F)n2)ncc1F |

Target: Soluble guanylate cyclase (Homo sapiens, UniProt O75343+P33402+Q02108+Q02153)
Assay: Activation of SGC in HEK293 cells assessed as cGMP production after 20 mins by LC-MS/MS analysis in presence of NO-donor DETA-NONOate
Format: cell-based
Conditions: not given

Chain of Soluble guanylate cyclase (Q02153 whole entry): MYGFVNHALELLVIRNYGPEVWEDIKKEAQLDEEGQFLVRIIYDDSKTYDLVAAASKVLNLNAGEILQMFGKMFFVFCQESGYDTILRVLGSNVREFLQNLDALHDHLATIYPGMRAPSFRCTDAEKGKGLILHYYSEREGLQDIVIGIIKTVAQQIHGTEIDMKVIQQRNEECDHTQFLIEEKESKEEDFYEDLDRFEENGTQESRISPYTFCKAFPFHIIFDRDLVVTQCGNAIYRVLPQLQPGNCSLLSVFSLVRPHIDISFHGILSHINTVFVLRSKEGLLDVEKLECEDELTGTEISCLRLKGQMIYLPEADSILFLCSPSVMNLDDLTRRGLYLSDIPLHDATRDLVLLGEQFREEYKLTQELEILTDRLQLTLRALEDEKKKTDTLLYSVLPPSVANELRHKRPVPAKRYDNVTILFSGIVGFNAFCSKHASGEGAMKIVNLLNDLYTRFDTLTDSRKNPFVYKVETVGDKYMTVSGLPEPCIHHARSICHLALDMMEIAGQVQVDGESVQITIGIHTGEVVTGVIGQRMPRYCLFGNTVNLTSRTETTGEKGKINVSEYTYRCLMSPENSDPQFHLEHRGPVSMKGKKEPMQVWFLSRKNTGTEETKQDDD
Chain of Soluble guanylate cyclase (O75343 whole entry): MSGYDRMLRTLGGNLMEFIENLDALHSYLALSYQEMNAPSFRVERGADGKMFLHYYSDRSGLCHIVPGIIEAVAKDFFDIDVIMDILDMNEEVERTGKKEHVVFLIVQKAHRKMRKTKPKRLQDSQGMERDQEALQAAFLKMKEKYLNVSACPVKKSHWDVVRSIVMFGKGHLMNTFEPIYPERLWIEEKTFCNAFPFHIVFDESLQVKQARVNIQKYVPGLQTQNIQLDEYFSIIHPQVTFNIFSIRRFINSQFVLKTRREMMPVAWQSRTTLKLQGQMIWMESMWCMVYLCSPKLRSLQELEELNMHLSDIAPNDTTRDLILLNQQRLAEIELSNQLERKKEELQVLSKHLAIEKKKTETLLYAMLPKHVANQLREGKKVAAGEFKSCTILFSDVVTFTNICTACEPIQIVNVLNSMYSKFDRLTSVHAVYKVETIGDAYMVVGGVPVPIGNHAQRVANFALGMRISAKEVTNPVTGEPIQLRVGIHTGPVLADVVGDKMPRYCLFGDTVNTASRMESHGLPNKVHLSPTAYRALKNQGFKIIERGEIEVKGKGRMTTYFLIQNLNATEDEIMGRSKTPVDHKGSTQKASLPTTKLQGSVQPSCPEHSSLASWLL
Chain of Soluble guanylate cyclase (P33402 whole entry): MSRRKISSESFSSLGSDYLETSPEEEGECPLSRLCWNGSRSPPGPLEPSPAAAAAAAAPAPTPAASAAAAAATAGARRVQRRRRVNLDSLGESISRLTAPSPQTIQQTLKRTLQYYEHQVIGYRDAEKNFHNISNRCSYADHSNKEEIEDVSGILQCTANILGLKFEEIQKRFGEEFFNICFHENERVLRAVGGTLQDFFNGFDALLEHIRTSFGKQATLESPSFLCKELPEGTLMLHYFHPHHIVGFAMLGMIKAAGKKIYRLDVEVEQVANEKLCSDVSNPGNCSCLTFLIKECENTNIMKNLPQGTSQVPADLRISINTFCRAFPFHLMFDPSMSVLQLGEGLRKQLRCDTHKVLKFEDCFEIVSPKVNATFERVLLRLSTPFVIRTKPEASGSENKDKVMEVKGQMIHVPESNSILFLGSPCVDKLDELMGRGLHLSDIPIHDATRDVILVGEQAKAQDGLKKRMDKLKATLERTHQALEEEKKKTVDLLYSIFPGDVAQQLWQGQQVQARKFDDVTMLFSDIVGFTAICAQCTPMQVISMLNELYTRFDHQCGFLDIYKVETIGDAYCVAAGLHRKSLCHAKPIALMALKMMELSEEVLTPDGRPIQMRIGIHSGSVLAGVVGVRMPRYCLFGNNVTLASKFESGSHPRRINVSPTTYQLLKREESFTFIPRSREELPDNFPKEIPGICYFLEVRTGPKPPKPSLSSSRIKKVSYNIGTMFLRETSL
Chain of Soluble guanylate cyclase (Q02108 whole entry): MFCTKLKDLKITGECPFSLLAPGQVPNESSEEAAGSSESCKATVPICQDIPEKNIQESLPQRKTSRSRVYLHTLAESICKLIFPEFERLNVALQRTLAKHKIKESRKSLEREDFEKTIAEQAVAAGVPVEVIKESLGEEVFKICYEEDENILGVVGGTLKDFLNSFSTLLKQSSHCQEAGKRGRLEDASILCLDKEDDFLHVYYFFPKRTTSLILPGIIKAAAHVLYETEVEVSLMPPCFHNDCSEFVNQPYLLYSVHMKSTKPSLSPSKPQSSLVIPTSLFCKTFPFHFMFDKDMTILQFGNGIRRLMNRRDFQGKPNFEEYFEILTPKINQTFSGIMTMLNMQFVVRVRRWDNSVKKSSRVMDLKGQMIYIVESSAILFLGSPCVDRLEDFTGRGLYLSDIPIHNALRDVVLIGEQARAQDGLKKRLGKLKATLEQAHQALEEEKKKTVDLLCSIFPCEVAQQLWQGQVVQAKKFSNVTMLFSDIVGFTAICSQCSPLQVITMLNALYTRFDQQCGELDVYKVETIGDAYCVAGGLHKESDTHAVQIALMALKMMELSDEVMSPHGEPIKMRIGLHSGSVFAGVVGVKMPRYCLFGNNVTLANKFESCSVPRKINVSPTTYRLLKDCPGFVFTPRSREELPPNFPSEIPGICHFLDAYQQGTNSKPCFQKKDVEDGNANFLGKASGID

| EC50 [nM] | SMILES |
| --- | --- |
| 280 | Oc1nc(-c2cc(-c3ccon3)n(Cc3sccc3F)n2)ncc1F |
| 350 | O=S(=O)(c1ccccc1)c1cnc(-c2cc(-c3ccon3)n(Cc3ccccc3F)n2)nc1O |
| 180 | O=c1[nH]c(-c2cc(-c3ccsn3)n(Cc3ccccc3F)n2)ncc1F |

Tested on: Rattus norvegicus
Assay: Reduction in mean arterial pressure in po dosed normotensive Sprague-Dawley rat measured after 12 to 24 hrs
Format: functional
Conditions: Artery

| SMILES | Activity |
| --- | --- |
| Oc1nc(-c2cc(-c3ccon3)n(Cc3ccccc3F)n2)ncc1F | Dose-dependent effect |

Same assay, conditions: Artery, read-out: MED

| SMILES | minimal effective dose [mg/kg] |
| --- | --- |
| Oc1nc(-c2cc(-c3ccon3)n(Cc3ccccc3F)n2)ncc1F | 1 |

Tested on: not listed separately
Assay: Volume of distribution at steady state in Beagle dog at 0.1 mg/kg, iv or 1 mg/kg, po by LC-MS/MS analysis
Format: ADME, organism-based, Canis lupus familiaris
Conditions: in vivo, read-out: Vdss

| Vd [L/kg] | SMILES |
| --- | --- |
| 0.095 | Oc1nc(-c2cc(-c3ccon3)n(Cc3ccccc3F)n2)ncc1F |

Target: cGMP-dependent 3',5'-cyclic phosphodiesterase (Homo sapiens) (UniProt O00408)
Assay: Inhibition of PDE2A (unknown origin) at 10 uM
Conditions: not given

| inhibition [%] | SMILES |
| --- | --- |
| < 30 | Oc1nc(-c2cc(-c3ccon3)n(Cc3ccccc3F)n2)ncc1F |

Tested on: Rattus norvegicus
Assay: fCmax in Sprague-Dawley rat at 1 mg/kg, po after 5 hrs by LC-MS/MS analysis
Format: ADME, organism-based
Conditions: in vivo

| fCmax [nM] | SMILES |
| --- | --- |
| 80 | Oc1nc(-c2cc(-c3ccon3)n(Cc3ccccc3F)n2)ncc1F |

Tested on: not listed separately
Assay: Cmax in CD-1 mouse at 1 mg/kg, po by LC-MS/MS analysis
Format: ADME, organism-based
Design: dose 1 mg/kg, route oral
Conditions: in vivo

| Cmax [ng/mL] | SMILES |
| --- | --- |
| 1000 | Oc1nc(-c2cc(-c3ccon3)n(Cc3ccccc3F)n2)ncc1F |

Tested on: not listed separately
Assay: Thermodynamic solubility of the compound at pH 9.2
Format: physicochemical
Conditions: buffer, read-out: Therm_solubility

| solubility thermodynamic [µg/mL] | SMILES |
| --- | --- |
| 142 (≈ 400 µM) | Oc1nc(-c2cc(-c3ccon3)n(Cc3ccccc3F)n2)ncc1F |

Tested on: not listed separately
Assay: Dissociation constant, pKa of the compound
Format: physicochemical
Conditions: not given

| pKa | SMILES |
| --- | --- |
| 5.75 | Oc1nc(-c2cc(-c3ccon3)n(Cc3ccccc3F)n2)ncc1F |

Target: Kappa-type opioid receptor (Homo sapiens, UniProt P41145)
Assay: Binding affinity to KOP receptor (unknown origin) at 10 uM
Conditions: not given

Chain of Kappa-type opioid receptor (P41145 whole entry): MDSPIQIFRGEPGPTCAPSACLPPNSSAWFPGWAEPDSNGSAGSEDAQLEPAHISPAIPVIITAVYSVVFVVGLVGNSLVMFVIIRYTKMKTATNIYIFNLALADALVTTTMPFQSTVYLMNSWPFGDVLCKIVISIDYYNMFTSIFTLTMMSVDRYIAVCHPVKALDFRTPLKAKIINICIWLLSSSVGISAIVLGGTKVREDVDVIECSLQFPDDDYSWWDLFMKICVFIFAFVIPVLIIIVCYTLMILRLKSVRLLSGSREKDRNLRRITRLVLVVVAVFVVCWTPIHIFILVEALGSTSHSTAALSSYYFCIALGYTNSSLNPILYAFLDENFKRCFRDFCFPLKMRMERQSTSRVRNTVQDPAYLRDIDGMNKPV

| Activity [%] | SMILES |
| --- | --- |
| 21 | Oc1nc(-c2cc(-c3ccon3)n(Cc3ccccc3F)n2)ncc1F |

Tested on: not listed separately
Assay: Cmax in Beagle dog at 1 mg/kg, po by LC-MS/MS analysis
Format: ADME, organism-based, Canis lupus familiaris
Design: dose 1 mg/kg, route oral
Conditions: in vivo

| Cmax [ng/mL] | SMILES |
| --- | --- |
| 3500 | Oc1nc(-c2cc(-c3ccon3)n(Cc3ccccc3F)n2)ncc1F |

Tested on: Rattus norvegicus
Assay: Reduction in mean arterial pressure in normotensive Sprague-Dawley rat at 10 mg/kg, po measured after 12 to 24 hrs
Format: functional, Artery
Conditions: not given

| SMILES | Activity [mmHg] |
| --- | --- |
| Oc1nc(-c2cc(-c3ccon3)n(Cc3ccccc3F)n2)ncc1F | 10 |

Target: cGMP-inhibited 3',5'-cyclic phosphodiesterase 3A (Homo sapiens) (UniProt Q14432)
Assay: Inhibition of PDE3A (unknown origin) at 10 uM
Conditions: not given

| inhibition [%] | SMILES |
| --- | --- |
| < 30 | Oc1nc(-c2cc(-c3ccon3)n(Cc3ccccc3F)n2)ncc1F |

Tested on: not listed separately
Assay: AUC(0 to infinity) in CD-1 mouse at 0.1 mg/kg, iv or 1 mg/kg, po by LC-MS/MS analysis
Format: ADME, organism-based
Conditions: in vivo

| AUC(0-inf) [ng·h/mL] | SMILES |
| --- | --- |
| 4500 | Oc1nc(-c2cc(-c3ccon3)n(Cc3ccccc3F)n2)ncc1F |

Tested on: not listed separately
Assay: Intrinsic clearance in human liver microsomes assessed per mg of protein at 2 uM after 10 to 30 mins by LC/MS/MS analysis in presence of NADPH
Format: ADME
Conditions: read-out: CLH

| SMILES | microsomal CLint at 2 µM [µL/min/mg] |
| --- | --- |
| Oc1nc(-c2cc(-c3ccon3)n(Cc3sccc3F)n2)ncc1F | 11 |
| Cc1cc(-c2cc(-c3ncc(F)c(O)n3)nn2Cc2ccccc2F)no1 | 118 |
| Oc1nc(-c2cc(-c3ccccn3)n(Cc3ccccc3F)n2)ncc1F | 9 |
| O=c1[nH]c(-c2cc(-c3ccsn3)n(Cc3ccccc3F)n2)ncc1F | 169 |

The remaining lines, values ahead:

| microsomal CLint at 2 µM [µL/min/mg] | SMILES |
| --- | --- |
| 18 | O=S(=O)(c1ccccc1)c1cnc(-c2cc(-c3ccon3)n(Cc3ccccc3F)n2)nc1O |
| 19 | Oc1nc(-c2cc(-c3ccon3)n(Cc3ccccc3F)n2)ncc1C(F)(F)F |
| 9 | Cc1nc(-c2cc(-c3ccon3)n(Cc3ccccc3F)n2)nc(O)c1F |
